{
  "source": "patent US20060210479A1",
  "about": "(Dow Global Technologies Inc., priority 2004, published 2006)",
  "key": {"[1]": {"test_system": "LNCaP cell line", "test": "Chelate permeability: fluorescence of cytoplasm and membrane fractions", "format": "cell-based, human"}, "[2]": {"test_system": "T84 cell line", "test": "Chelate permeability: fluorescence of cytoplasm and membrane fractions", "format": "cell-based, human", "conditions": "1 mM chelate, 2 h, Table 1"}, "[3]": {"test_system": "Caco-2 cell line", "test": "Chelate permeability: fluorescence of cytoplasm and membrane fractions", "format": "cell-based, human"}, "[4]": {"test_system": "RBL-2H3 cell line", "test": "Chelate permeability: fluorescence of cytoplasm and membrane fractions", "format": "cell-based, rat", "conditions": "0-2000 μM, 2 hours", "procedure": "Tb-PCTMB (Tb(III) 3,6,9-tris(methylene phosphonic acid n-butyl ester)-3,6,9,15-tetraazabicyclo[9.3.1]pentadeca-1(15),11,13-triene) was tested for permeability to abnormal and disease-state cells.\nRBL-2H3 is a rat basophilic leukemia cell line. These cells were grown in Iscove's Medium supplemented with 2 mM L-glutamnine, penicillin/streptomycin (100 IU/mL, 100 μg/mL) and 10% FBS. Cells were maintained at 5% CO2 and 95% humidity. PZ-HPV-7 cell line was derived from epithelial cells cultured from normal prostate tissue. They were grown in Keratinocyte-Serum Free Medium with human recombinant EGF and bovine pituitary extract supplemented with 50 μg/mL gentamicin and penicillin/streptomycin (100 IU/mL, 100 μg/mL). All media and supplements were purchased from Gibco BRL (Grand Island, N.Y., USA). All cell lines were obtained from ATCC and were maintained at 37° C., 5% CO2 and 95% humidity.\nCells were grown to confluence in T-150 flasks (about 2×10^6 cells). […] Cells were then removed from the flask by manual scraping. Cells were transferred to a 50-mL conical tube and centrifuged (400×g) for 5 minutes and the test material removed.\nCells were grown as described herein (Example 1). Cells were grown to confluence in T-150 flask (about 2×10^6 cells). […] Cells were then removed from the flask by manual scraping. Cells were transferred to a 50-mL conical tube and centrifuged (400×g) for 5 minutes and the test material removed.\nFurthermore, one analogue, QCTMP (FIG. 26), having lesser lipophilic character (a free phosphonic acid moiety) was evaluated. […] In this study, the cytoplasm and membrane fractions were extracted by Mem-PER Eukaryotic Membrane Protein Extraction Reagent Kit as described by the manufacturers (Pierce Biotechnology, Rockford, Ill.) and analyzed by a Fluor-S Multilmager."}, "[5]": {"test_system": "PZ-HPV-7 normal cell line", "test": "Chelate permeability: fluorescence of cytoplasm and membrane fractions", "format": "cell-based", "conditions": "PZ-HPV-7"}, "[6]": {"test_system": "HEK293 cells, normal (non-induced)", "test": "Permeability of chelates to HEK293 cells, fluorescence of fractions", "format": "cell-based, human", "conditions": "HEK293 Normal; 1 mM chelate, 2 hours", "procedure": "(§1) The human kidney transformed HEK293 cells (obtained from the ATCC) were grown in Eagle's Minimum Essential Medium (EMEM) supplemented with 10% (v/v) heat-inactivated fetal bovine serum, sodium pyruvate, nonessential amino acids and antibiotics in a humidified 5% CO2 atmosphere at 37° C. Medium and supplements were purchased from Gibco bRL (Grand Island, N.Y.). Etoposide was obtained from Sigma (St. Louis, Mo.) and prepared as 20 mM solution in dimethyl sulfoxide (DMSO). For treatments, etoposide was applied to the HEK293 cultures at 1:1000 dilution (final concentration of 20 μM) after cell became 75% confluent. As a control, cells were fed with medium containing 0.1% DMSO in the absence of etoposide. After treatment with etoposide, cells were incubated in a humidified 5% CO2 at 37° C. for 24 hours. HEK293 cells were collected by removing treatment medium and washed 2 times with 10 mM HEPES buffer. Final cell pellets were resuspended in a small amount of HEPES and stored at 4° C. for further study.\n(§2) Cells were grown to confluence in T-150 flasks (about 2×10^6 cells). […] After treatment, the chelate or analogue supernatant was discarded and the cells were rinsed three times at room temperature with 10 mM HEPES. Cells were then removed from the flask by manual scraping. Cells were transferred to a 50-mL conical tube and centrifuged (400×g) for 5 minutes and the test material removed. Remaining cells were rinsed twice with cold 10 mM HEPES. Cells were used in cell binding assays."}, "[7]": {"test_system": "etoposide-induced (apoptotic) HEK293 cells", "test": "Permeability of chelates to apoptotic cells, fluorescence of fractions", "format": "cell-based, human", "procedure": "as §1, §2"}, "[8]": {"test_system": "cancer cells (LNCaP, Caco-2, T84)", "test": "Chelate permeability and specificity, cancer cells versus normal cells (summary)", "format": "cell-based, human", "conditions": "cancer cells"}, "[9]": {"test_system": "DMBA-induced tumor tissue of buccal cheek pouch", "conditions": "2 mM solution topical, 10 minutes; for Fluorescence/mg Cytoplasm / Fluorescence/mg Membrane: readings Adjusted Volume CNT*mm2"}, "[10]": {"test_system": "normal cheek pouch tissue", "conditions": "2 mM solution topical, 10 minutes, readings Adjusted Volume CNT*mm2"}, "[11]": {"biological_target": "HSPC194 (Homo sapiens, UniProt Q9P0S9)", "sequence (Q9P0S9 whole entry)": "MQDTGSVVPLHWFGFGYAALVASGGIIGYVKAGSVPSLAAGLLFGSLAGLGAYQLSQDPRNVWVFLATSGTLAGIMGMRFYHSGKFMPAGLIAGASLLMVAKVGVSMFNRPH", "conditions": "LNCaP, T84, Caco-2, RBL-2H3; 2 hours", "method": "Cell samples were lysed in parallel by sonication or by lysis in hypotonic buffer. Cell fractions were collected from discontinuous sucrose gradients and from separate Percoll gradients, after ultracentrifugation.\nFollowing fractionation, each sample was lyophilized to enrich the sample.\nThe resulting tryptic peptides were analyzed directly by mass spectrometry. Peptide mass fingerprints were generated for the identification of the protein, and MALDI-PSD was used to sequence Fragments T3, T4, T5, and T6. The resulting data were used to search GenBank for a human protein having or a nucleic acid encoding, an amino acid sequence matching this set of peptides."}, "[12]": {"test_system": "cancer cell lines (LNCaP, T84, Caco-2, RBL-2H3) and healthy control cells"}, "[13]": {"conditions": "0-2000 μM, 2 hours, compared to PZ-HPV-7"}},
  "note": "Read-outs that look alike come from different tables or passages of the source.",
  "data": [
    {"smiles": "CCCCOP(=O)([O-])CN1CCN(CP(=O)([O-])OCCCC)Cc2cccc(n2)CN(CP(=O)([O-])OCCCC)CC1.[Tb+3]", "note": "[Tb-PCTMB, Tb(III) 3,6,9-tris(methylenephosphonic acid n-butyl ester)-3,6,9,15-tetraazabicyclo[9.3.1]pentadeca-1(15),11,13-triene]", "values": [
      {"measurement": "fluorescence in the cytoplasm, dose response", "setting": "[1]; [13]", "result": "significant increases in fluorescence"},
      {"measurement": "Fluorescence/mg Cytoplasm", "setting": "[1]; 1 mM chelate, 2 h, Table 1", "result": 616.8},
      {"measurement": "Fluorescence/mg Membrane", "setting": "[1]; 1 mM chelate, 2 h, Table 1", "result": 448.9},
      {"measurement": "Fluorescence/mg Cytoplasm", "setting": "[2]", "result": 476.4},
      {"measurement": "Fluorescence/mg Membrane", "setting": "[2]", "result": 355.5},
      {"measurement": "fluorescence in the membrane fractions, dose response", "setting": "[3]; 0-2000 μM, 2 hours", "result": "detectable quantity of fluorescence"},
      {"measurement": "fluorescence in the cytoplasm, dose response", "setting": "[3]; [13]", "result": "significant increases in fluorescence"},
      {"measurement": "Fluorescence/mg Cytoplasm", "setting": "[3]; 1 mM chelate, 2 h, Table 1", "result": 481.6},
      {"measurement": "Fluorescence/mg Membrane", "setting": "[3]; 1 mM chelate, 2 h, Table 1", "result": 398.6},
      {"measurement": "fluorescence in the membrane fractions, dose response", "setting": "[4]", "result": "detectable quantity of fluorescence"},
      {"measurement": "fluorescence in the cytoplasm, dose response", "setting": "[4]; compared to PZ-HPV-7", "result": "significant increases in fluorescence"},
      {"measurement": "detectability in normal cells", "setting": "[5]", "result": "significantly less detectable"},
      {"measurement": "Fluorescence/mg Membrane", "setting": "[6]", "result": 925},
      {"measurement": "permeability to apoptotic induced HEK293 cells", "setting": "[7]", "result": "permeable"},
      {"measurement": "Fluorescence/mg Membrane", "setting": "[7]; HEK293 Apoptotic (etoposide 20 μM, 24 hours), 1 mM chelate, 2 hours", "result": 949},
      {"measurement": "permeability to cell membranes", "setting": "[8]", "result": "permeable to cancer cell membranes"},
      {"measurement": "fluorescence in the cytoplasm of tumor tissue compared to normal tissue", "setting": "[9]", "result": "significantly greater fluorescence"},
      {"measurement": "Fluorescence/mg Cytoplasm", "setting": "[9]; Tumor 1", "result": 3014},
      {"measurement": "Fluorescence/mg Membrane", "setting": "[9]; Tumor 1", "result": 1331},
      {"measurement": "Fluorescence/mg Cytoplasm", "setting": "[9]; Tumor 2", "result": 3064},
      {"measurement": "Fluorescence/mg Membrane", "setting": "[9]; Tumor 2", "result": 1484},
      {"measurement": "Fluorescence/mg Cytoplasm", "setting": "[10]; Normal 1", "result": 1138},
      {"measurement": "Fluorescence/mg Membrane", "setting": "[10]; Normal 1", "result": 1126},
      {"measurement": "Fluorescence/mg Cytoplasm", "setting": "[10]; Normal 2", "result": 1117},
      {"measurement": "Fluorescence/mg Membrane", "setting": "[10]; Normal 2", "result": 1125},
      {"measurement": "binding to protein expressed in cancer cell lines (HSPC194, about 15 kDa)", "setting": "[11]", "result": "binds specifically to a single protein"},
      {"measurement": "localization in cancer cell lines, confocal fluorescence microscopy", "setting": "[12]", "result": "localized throughout the cytoplasm"},
      {"measurement": "presence in healthy (control) cells, confocal fluorescence microscopy", "setting": "[12]", "result": "not present"}
    ]}
  ]
}
